# Measurements as given in PMC6240063, “An improved genome assembly for Larimichthys crocea reveals hepcidin gene expansion with diversified regulation and function” (Communications Biology, 2018).
# Ends that are not written are not given here.
# Columns and labels:
# Aeromonas hydrophila = assay: Minimum inhibitory concentration, liquid growth inhibition assay; type: cell-based; conditions: gram-negative, lowest concentration giving 100% decrease in optical density, peptide in PBS pH 7.4
# Excerpt: (§1) The mature peptides of LcHamp1 (HAMP1: […]), LcHamp2-1/4 (HAMP2-1/4: […]), LcHamp2-2 (HAMP2-2: […]), LcHamp2-3 (HAMP2-3: GSPARCRFCCR CCPGMRGCGICCRF), and LcHamp2-5 (HAMP2-5: […]) were synthesized, oxidized, and purified by GL Biochem (Shanghai) Ltd. (Shanghai, China). Purity of the synthesized peptides was >/95%. The synthetic peptides were reconstituted in phosphate buffered saline (PBS; pH 7.4). We tested the antimicrobial activity of synthesized peptides against the five gram-negative bacteria A. hydrophila, E. coli, V. alginolyticus, V. harvryi, and V. parahemolyticus, and three gram-positive bacteria B. subtilis, B. amyloliquefaciens, and S. aureus using liquid growth inhibition assays. The minimum inhibitory concentration was considered the lowest concentration that induced a 100% decrease in the optical density of the bacterial suspension.
# [1] = test system: Bacillus amyloliquefaciens; assay: as above; type: cell-based; conditions: gram-positive, lowest concentration giving 100% decrease in optical density, peptide in PBS pH 7.4
# Excerpt: as §1
# Bacillus subtilis = assay: as above; type: cell-based; conditions: gram-positive, lowest concentration giving 100% decrease in optical density, peptide in PBS pH 7.4
# Excerpt: as §1
# Escherichia coli = assay: as above; type: cell-based; conditions: gram-negative, lowest concentration giving 100% decrease in optical density, peptide in PBS pH 7.4
# Excerpt: as §1
# Staphylococcus aureus = assay: as above; type: cell-based; conditions: gram-positive, lowest concentration giving 100% decrease in optical density, peptide in PBS pH 7.4
# Excerpt: as §1
# Vibrio alginolyticus = assay: as above; type: cell-based; conditions: gram-negative, lowest concentration giving 100% decrease in optical density, peptide in PBS pH 7.4
# Excerpt: as §1
# Vibrio harveyi = assay: as above; type: cell-based; conditions: gram-negative, lowest concentration giving 100% decrease in optical density, peptide in PBS pH 7.4
# Excerpt: as §1
# Vibrio parahaemloyticus = assay: as above; type: cell-based; conditions: gram-negative, lowest concentration giving 100% decrease in optical density, peptide in PBS pH 7.4
# Excerpt: as §1
# [2] = test system: Singapore grouper iridovirus (SGIV); assay: Antiviral activity in SGIV-infected grouper spleen cells; type: cell-based; conditions: grouper spleen cells pretreated 1 h with 50 µg/mL peptide, SGIV at MOI 2; cytopathic effect, ORF072 and ORF086 expression (real-time PCR), viral titer TCID50; three independent experiments
# Protocol: The antiviral activity of synthetic L. crocea hepcidins was tested in grouper spleen cells, in which a viral infection model has already been established. Grouper spleen cells were seeded onto 6-well plates (Thermo Fisher Scientific, USA) for 18 h. The grouper spleen cells were pretreated for 1 h with each synthetic Hamp peptide at a final concentration of 50 µg/mL or with PBS (as a control). After pretreatment, the cells were infected with SGIV at a multiplicity of infection of 2. At 24 h post infection, cytopathic effects in the grouper spleen cells were observed microscopically (Leica Microsystems, Germany). The expression levels of two genes encoding SGIV envelope proteins (ORF072 and ORF086) were measured with real-time PCR. E. coioides β-actin (Ecβ-actin) was amplified as an internal control. The expression level of ORF072 or ORF086 was normalized to Ecβ-actin using the 2^–ΔΔCT method. Moreover, supernatants and infected cell lysates were collected to determine the viral titer 50% tissue culture infectious dose[50]. All data were obtained from three independent experiments with each performed in triplicate.
# [3] = test system: five gram-negative bacteria and three gram-positive bacteria; assay: Minimum inhibitory concentration across all tested bacteria; type: cell-based; conditions: all eight tested bacteria (five gram-negative, three gram-positive); liquid growth inhibition; no antibacterial activity at highest concentration given as >
# Excerpt: as §1
# [4] = test system: macrophages from L. crocea head kidney; assay: Intracellular iron in macrophages; type: cell-based, Larimichthys crocea; conditions: 100 ng/mL peptide, 2 h, ICP-MS, versus PBS control, P < 0.05, three independent experiments
# Protocol: Six groups of macrophages (1 × 10^6 cells per well) were seeded onto 6-well plates for 18 h. To each of five of the groups, we added one synthetic hepcidin peptide from L. crocea, with a final concentration of 100 ng/mL. The sixth group (control) was treated with PBS. After 2 h incubation, we measured the intracellular iron concentration of macrophages with Inductively Coupled Plasma Mass Spectrometry. The fold change was expressed as the intracellular iron concentration in macrophages treated with synthetic hepcidin peptides versus the intracellular iron concentration in the control macrophages.
Sequence,MIC (Aeromonas hydrophila) [µM],MIC [1] [µM],MIC (Bacillus subtilis) [µM],MIC (Escherichia coli) [µM],MIC (Staphylococcus aureus) [µM],MIC (Vibrio alginolyticus) [µM],MIC (Vibrio harveyi) [µM],MIC (Vibrio parahaemloyticus) [µM],antiviral activity against SGIV infection [2],minimum inhibitory concentrations for the bacterial species tested [3] [µM],intracellular iron content of macrophages (regulatory effect on iron metabolism) [4]
"GSPARCRFCCR CCPGMRGCGICCRF (disulfide) (disulfide (positions not given here)) [HAMP2-3, synthetic, oxidized mature peptide of Larimichthys crocea hepcidin LcHamp2-3]",16,8,4,16,4,16,16,16,exhibited antiviral activity,–,–
"GSPARCRFCCRCCPRMRGCGICCRF (disulfide) (disulfide (positions not given here)) [HAMP2-5, synthetic, oxidized mature peptide of Larimichthys crocea hepcidin LcHamp2-5]",1,1,0.25,0.5,0.5,0.25,0.5,0.5,no identifiable antiviral activity,–,–
"QSHISLCRYCCNCCKNKGCGYCCRF (disulfide (positions not given here)) [HAMP1, synthetic, oxidized mature peptide of Larimichthys crocea hepcidin LcHamp1]",–,–,–,–,–,–,–,–,no identifiable antiviral activity,> 300,increases in iron content
SSAAKCQFCCRCCPDMIGCGICCRF (disulfide (positions not given here)) [HAMP2-1/4],–,–,–,–,–,–,–,–,exhibited antiviral activity,> 300,increases in iron content
"SSAAKCQFCCRCCPRMSGCGVCCRF (disulfide (positions not given here)) [HAMP2-2, synthetic, oxidized mature peptide of Larimichthys crocea hepcidin LcHamp2-2]",–,–,–,–,–,–,–,–,no identifiable antiviral activity,> 300,"no antibacterial activity, antiviral activity or regulatory effect on iron metabolism"
